Laboratory results published in patent EP0385445A2, “Method of forming a suspension and composition formed by said method” (Horikoshi, Isamu, priority 1989, dated 1990).
Where a SMILES comes first, the peptide text is derived from it. Bridges are numbered along the chain shown (N, C = ends).

Assays:
[1] = rat, in vivo
Protocol: Wistar male rats each weighing ca. 300 g were starved overnight. Thereafter, their skin above the right common carotid artery was incised and a cannula was inserted into the artery. […] The so prepared emulsion was administered orally to the rats. […] The dose of hydrocortisone was 1.5 mg/kg. After hydrocortisone administration, blood samples were taken at regular time intervals. Feces and urine were collected and the rats were killed 49 hours after the administration. The digestive tracts, their contents and various organs were separated and the content of hydrocortisone in each site was determined by radioactivity measurement.

[2] = Measurement of emulsion activity (light transmittance); format: physicochemical; details: emulsion containing the labelled fat or oil; Fig. 6
Protocol: After heating at 40 - 45°C for 5 minutes, the mixture was stirred with a Polytron homogenizer at a maximum speed for 1 minute to obtain an emulsion (which contained 5 wt% of the oil).
Each of the emulsions was put into a test tube, which was readjusted to a vertical position and left to stand at room temperature. At given time intervals, 0.2-ml portions of each emulsion were collected from the bottom of the test tube and mixed with 3.8 ml of an aqueous solution of 0.1% sodium dodecylsulfate. The light transmittance of each sample was measured under various conditions and the results of measurements are shown in Figs. 3 - 6.

[3] = Absorption of vitamin A through lymphatic vessels after injection of emulsions into the loop of small intestines; format: in vivo, Wistar male rats
Protocol: Wistar male rats each weighing about 400 g were starved for 24 hours. The starved rats were anesthetized by intraperitoneal administration of pentobarbital. Thereafter, the rats were incised in the belly and silicon cannulas were inserted into the area between the pylorus of the stomach and the duodenum and into the ileocecal area. Through the upper cannula, liquid drugs (5 ml) composed of the emulsions prepared in Example 1 were injected into the loop of small intestines (duodenum, jejunum and ileum) and the cannula was closed with a clamp.
Blood and lymph fluid were collected from the hip artery and the lymph in the thoracic duct at given time intervals and the concentrations of vitamin A in the two fluids were measured. A similar experiment was conducted on biliary fistula rats from which bile was excreted through a cannula inserted into the bile duct, and comparison was made with intact rats which had not received such a treatment.
[…] After extraction with cyclohexane, the concentration of vitamin A in each sample was measured by fluorometry at 480 nm with fluorescence excited at 340 nm. After being absorbed by the small intestines, vitamin A forms chylomicron, the greater part of which is known to be transferred into the lymph system, not the blood system.

[4] = Concentration of eel calcitonin in blood after injection into the duodenum (Example 11); format: in vivo, Wistar male rats; details: male, Wistar, rat, 50 ug per rat, 100 µg/ml, 0.5 ml into the duodenum
Protocol: Wistar male rats each weighing ca. 200 g were cannulated at the duodenum and tail vein under anesthetization with either and restrained in Bollman cages. […] A control group was injected with 0.5 ml of PBS(-), and a calcitonin control group was injected with 0.5 ml of a solution of calcitonin in phosphate buffer saline (100 µg/ml). Blood samples were taken from these control-groups according to the same schedule as in the case of the emulsion treated group. Thirty minutes before the administration of calciton, calcium chloride in physiological saline was administered intraperitoneally in an amount of 60 mg/kg in order to stimulate the secretion of endogenous calcitonin. Each rat group consisted of 6 animals.

[5] = Oral absorption of lipid-soluble drugs reduced to microspheres with MFGM; details: drug reduced to microspheres with MFGM

With Tween 80 the “residual in the body” value [1] was 12.41 % of dose.

In the case of CCCCCCCC/C=C\CCCCCCCC(=O)O [oleic acid], the “increase in emulsion activity” value [2] is reported as “highest increase” and the “concentration of vitamin A in lymph (ranking)” value ([3]; intact rats, emulsion in labelled fat or oil, content 5%, vitamin A 2.5 mg per rat, Fig. 9) is reported as “lowest level”.

CC(C)C[C@H](NC(=O)[C@H](CCCCN)NC(=O)CNC(=O)[C@H](CC(C)C)NC(=O)[C@@H](NC(=O)[C@@H]1CSSC[C@H](N)C(=O)N[C@@H](CO)C(=O)N[C@@H](CC(N)=O)C(=O)N[C@@H](CC(C)C)C(=O)N[C@@H](CO)C(=O)N[C@@H]([C@@H](C)O)C(=O)N1)C(C)C)C(=O)N[C@@H](CO)C(=O)N[C@@H](CCC(N)=O)C(=O)N[C@@H](CCC(=O)O)C(=O)N[C@@H](CC(C)C)C(=O)N[C@@H](Cc1c[nH]cn1)C(=O)N[C@@H](CCCCN)C(=O)N[C@@H](CC(C)C)C(=O)N[C@@H](CCC(N)=O)C(=O)N[C@H](C(=O)N[C@@H](Cc1ccc(O)cc1)C(=O)N1CCC[C@H]1C(=O)N[C@@H](CCCNC(=N)N)C(=O)N[C@H](C(=O)N[C@@H](CC(=O)O)C(=O)N[C@H](C(=O)NCC(=O)N[C@@H](C)C(=O)NCC(=O)N[C@H](C(=O)N1CCC[C@H]1C(N)=O)[C@@H](C)O)C(C)C)[C@@H](C)O)[C@@H](C)O [Calcitonin treated] (H-CSNLSTCVLGKLSQELHKLQTYPRTDVGAGTP-NH2; disulfide 1-7 (inferred); N-terminus and C-terminus assumed) gave a level at 0 h [4]; 0 of 0.1 ± 0.08 ng/mL, a level at 0.5 h ([4]; 30 min.) of 0.7 ± 0.09 ng/mL and a level at 1 h ([4]; 60 min.) of 0.7 ± 0.22 ng/mL. It also gave a level at […] ([4]; 90 min.) of 0.8 ± 0.31 ng/mL and a level at 2 h ([4]; 120 min.) of 0.6 ± 0.4 ng/mL.

With vitamin A the “concentration of vitamin A in lymph” value ([3]; rat, in vivo) was “dropped to very low levels” and the “vitamin A in the blood” value ([3]; rat, in vivo) was “hardly detectable”.

In the case of COC1=C(OC)C(=O)C(CCCCCCCCCCO)=C(C)C1=O [avan], the “ability of MFGM to promote the absorption” value [5] is reported as “also observed”.

With CCCCCCCC/C=C\CCCCCCCC(=O)OCC(O)CO (stereo not drawn) [monoolein] the “increase in emulsion activity” value [2] was “least increase”.
